PMC4122355, “Inhibitor of the Tyrosine Phosphatase STEP Reverses Cognitive Deficits in a Mouse Model of Alzheimer's Disease” (PLoS Biology, 2014)

Key:
HePTP = biological target: T1, HePTP (Homo sapiens, UniProt P35236); assay: Selectivity pNPP assay, full-length PTPs: HePTP; format: biochemical; conditions: full-length PTP, 10 nM, 500 µM pNPP
T1 construct: Full-length HePTP and PTP-SL proteins were purchased from Abnova; purchased Abnova (Taipei, Taiwan)
T1 sequence (P35236 1-360): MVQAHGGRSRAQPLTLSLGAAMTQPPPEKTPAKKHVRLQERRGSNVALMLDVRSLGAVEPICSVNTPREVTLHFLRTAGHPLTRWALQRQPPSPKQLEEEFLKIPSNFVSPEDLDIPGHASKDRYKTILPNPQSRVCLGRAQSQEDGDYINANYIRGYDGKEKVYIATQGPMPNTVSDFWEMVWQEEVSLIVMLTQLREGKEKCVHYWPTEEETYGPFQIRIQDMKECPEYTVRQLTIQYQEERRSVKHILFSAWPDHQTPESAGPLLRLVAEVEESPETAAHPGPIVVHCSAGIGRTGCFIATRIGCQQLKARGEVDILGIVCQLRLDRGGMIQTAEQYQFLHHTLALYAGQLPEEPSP
Excerpt: Constructs were transformed into BL21 (DE3) E. coli cells. Fusion proteins were purified on a glutathione sepharose column.

[1] = test system: GluN2B (Y1472), Pyk2 (Y402), ERK1/2 (Y204/187) in cortical neurons; assay: Tyr phosphorylation of STEP substrates in cortical neuronal cultures (Western blot); format: cell-based, rat; conditions: 1 µM dose, 1 h, relative to vehicle
Description: Primary cortical neurons were isolated from Sprague Dawley rat embryos (E18) (Charles River Laboratories, Wilmington, MA) as previously described. In some experiments, cortical neurons were made from WT and STEP KO mouse embryos (E18). Neurons were allowed to grow for 18–21 d in CO2 incubator before addition of compounds at indicated doses for 1 h. Immediately following treatments, neurons were lysed in RadioImmuno Precipitation Assay (RIPA) buffer supplied with protease inhibitor cocktail (Roche Applied Science, Indianapolis, IN) and phosphatase inhibitors (NaF and Na3VO4). All experiments were replicated four times with four independent batches of cultures.
Samples were prepared and resolved by SDS-PAGE, transferred to nitrocellulose membrane, and incubated with phospho-specific antibodies (anti-pY^204/187 ERK1/2, anti-pY^402 Pyk2, anti-pY^1472 GluN2B) or total protein antibodies (anti-ERK2, anti-Pyk2, and anti-NR2B) overnight at 4°C. Immunoreactivity was visualized using a Chemiluminescent substrate kit (Pierce Biotechnology, Rockford, IL) and detected using a G:BOX with the image program GeneSnap (Syngene, Cambridge, UK). All densitometric quantifications were performed using the Genetools program.

STEP = biological target: T2, STEP (Mus musculus, UniProt P54830); assay: Dialysis of TC-2153-inhibited STEP; format: biochemical; conditions: after 24 h of dialysis
T2 sequence (P54830 1-541): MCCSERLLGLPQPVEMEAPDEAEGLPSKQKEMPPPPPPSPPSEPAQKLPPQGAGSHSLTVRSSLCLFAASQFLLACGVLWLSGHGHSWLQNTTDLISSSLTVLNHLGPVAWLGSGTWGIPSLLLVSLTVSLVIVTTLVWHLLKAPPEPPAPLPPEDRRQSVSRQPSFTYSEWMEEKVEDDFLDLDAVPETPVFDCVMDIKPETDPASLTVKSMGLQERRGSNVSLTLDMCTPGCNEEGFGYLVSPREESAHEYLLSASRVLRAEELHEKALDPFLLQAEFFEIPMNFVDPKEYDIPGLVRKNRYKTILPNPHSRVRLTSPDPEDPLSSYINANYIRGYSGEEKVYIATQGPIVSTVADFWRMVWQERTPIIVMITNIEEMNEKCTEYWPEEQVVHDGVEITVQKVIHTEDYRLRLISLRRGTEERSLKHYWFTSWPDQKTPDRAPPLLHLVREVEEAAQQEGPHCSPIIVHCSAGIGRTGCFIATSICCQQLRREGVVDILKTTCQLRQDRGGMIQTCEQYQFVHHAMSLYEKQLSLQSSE
Description: The samples were shaken at room temperature for 1 h to inhibit STEP. Each sample was then transferred to a separate Thermo Scientific Slide-A-Lyzer dialysis cassette with a 10,000 MW cutoff and 0.5–3.0 mL sample volume and was dialyzed into 1 L of 1× assay buffer over 24 h in a 4°C cold room. Aliquots of approximately 100 µL were removed from the dialysis cassette at 0, 4, and 24 h time points. Protein concentration was determined by reading absorbance at 280 nm compared to a standard curve for STEP. The samples were diluted to 100 nM in 100 µL of 1× assay buffer. […] The initial rate data collected were used to determine enzyme activity standardized to the DMSO control zero time point.

3xTg-AD and WT mice = assay: Y-maze alternation task; format: in vivo, mouse; conditions: 10 mg/kg i.p. 3 h prior
Description: The Y-maze apparatus consisted of three dark gray arms (42×4.8×20 cm). […] The total number of arm entries was recorded, as was the number of entries representing alternation behavior (i.e., sequential entry into all three arms). All four paws of the mouse had to enter an arm for it to count as an arm entry. Percentage spontaneous alternation = (number of alternations)/(total arm entries – 2). […] A total number of 20 WT and 11 AD mice were used in the Y-maze task.

[2] = cited from earlier work

Cl.Nc1cc(C(F)(F)F)cc2c1SSSSS2 [TC-2153, 8-(trifluoromethyl)-1,2,3,4,5-benzopentathiepin-6-amine hydrochloride]
IC50 (HePTP): 363.5 ± 1.2 nM | pERK1/2 (Y204/187), phospho-signal normalized to total protein and GAPDH [1]: 2.39±0.18 | pGluN2B (Y1472), phospho-signal normalized to total protein and GAPDH [1]: 2.07±0.15 | pPyk2 (Y402), phospho-signal normalized to total protein and GAPDH [1]: 1.81±0.21 | STEP activity after dialysis (reversibility) (STEP): STEP remained inhibited | Y-maze arm entries (general motor activity) (3xTg-AD and WT mice): no significant change in arm entries | Y-maze percentage spontaneous alternation, WT mice (3xTg-AD and WT mice; WT mice, vehicle 74.98±2.19): 73.45±3.19 | LD50 (acute toxicity) [2]: > 1,000 mg/kg
